Measurements reported in PubChem BioAssay AID1552 (Sanford-Burnham Center for Chemical Genomics, 2009).
Activity calls are given as the source filed them. The rule behind the calls is not given here.

These compounds were tested against Ubiquitin-conjugating enzyme E2 N (Homo sapiens) (UniProt P61088) (assay: UBE2N binders by NMR, biophysical, purified protein (AID 1552)). Settings: NMR binding to purified UBE2N.
Chain of Ubiquitin-conjugating enzyme E2 N (Homo sapiens) (P61088 whole entry, looked up): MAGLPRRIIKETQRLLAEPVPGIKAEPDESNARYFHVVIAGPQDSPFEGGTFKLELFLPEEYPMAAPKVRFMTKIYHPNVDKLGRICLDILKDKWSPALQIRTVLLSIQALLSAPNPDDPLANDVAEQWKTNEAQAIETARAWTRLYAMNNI
`CCOc1ccc(C)cc1S(=O)(=O)n1ccnc1` was tested, and the Kd was > 4 mM (inactive).
For `Cc1n[nH]c(C)c1CN`, the Kd was > 4 mM (inactive).
`CN1C(=O)c2ccc(N3CCCC3)cc2C1=O` was tested, and the Kd was > 4 mM (inactive).
In the case of `c1cncc(Cn2cccc2)c1`, the Kd was > 4 mM (inactive).
With `COCC(=O)Nc1cccc(Br)c1` the Kd was > 4 mM (inactive).
With `CC1=CC2C(CC1=O)C(C)=CCC2C(C)C` (configuration not stated) the Kd was > 4 mM (inactive).
For `O=C(O)c1ccc(NCc2cccnc2)cc1`, the Kd was > 4 mM (inactive).
With `NC1=NN(c2ccccc2)C(=O)C1` the Kd was > 4 mM (inactive).
`NS(=O)(=O)c1ccc(NC(=O)c2ccccc2F)cc1` was tested, and the Kd was > 4 mM (inactive).
In the case of `Cc1nnc2sc(-c3csc4c3CCCC4)nn12`, the Kd was > 4 mM (inactive).
For `COc1cccc(/C=C2/SC(N)=NC2=O)c1`, the Kd was > 4 mM (inactive).
`N#Cc1nc(N2CCCCC2)nc(N2CCOCC2)n1` was tested, and the Kd was > 4 mM (inactive).
For `O=C1CN(c2ccccc2)CC(=O)N1`, the Kd was > 4 mM (inactive).
For `NC(C(=O)O)C(O)c1ccccc1` (configuration not stated), the Kd was > 4 mM (inactive).
`NC(=O)COc1cccc2cccnc12` was tested, and the Kd was > 4 mM (inactive).
`CS(=O)(=O)c1cccc(C(=O)Nc2nccs2)c1` was tested, and the Kd was > 4 mM (inactive).
For `CN1C2CCC1CC(OC(=O)C(CO)c1ccccc1)C2` (configuration not stated), the Kd was > 4 mM (inactive).
`C/C=C(\C)C(=O)O[C@H]1C[C@@H](OC(C)=O)[C@@]2(C(=O)OC)CO[C@@H]3C2[C@]12CO[C@](O)(C(=O)OC)[C@H]2[C@](C)(C12O[C@@]1(C)[C@H]1C[C@@H]2OC2OC=C[C@@]21O)[C@@H]3O` (some centres not stated) was tested, and the Kd was > 4 mM (inactive).
For `COc1ccc(S(=O)(=O)N2CCOCC2)cc1C(C)C`, the Kd was > 4 mM (inactive).
For `CN(C)C(=O)c1ccc(-c2n[nH]c(=O)c3ccccc23)cc1`, the Kd was > 4 mM (inactive).
`S=C=NCc1ccccc1` was tested, and the Kd was > 4 mM (inactive).
For `COC(=O)C(O)[C@@H]1C2(C)C(=O)[C@@H](CC3=C4CC(=O)O[C@@H](c5ccoc5)[C@]4(C)CCC32)[C@H](OC(C)=O)C1(C)C` (some centres not stated), the Kd was > 4 mM (inactive).
With `O=C(c1cccnc1Cl)N1CCOCC1` the Kd was > 4 mM (inactive).
In the case of `Cc1cc(Oc2ccccc2)nc(N)n1`, the Kd was > 4 mM (inactive).
`O=C1CCc2ccccc2CN1` was tested, and the Kd was > 4 mM (inactive).
`CCc1noc(C)c1C(=O)Nc1ncc(C)s1` was tested, and the Kd was > 4 mM (inactive).
In the case of `Nc1c(F)c(F)nc(F)c1F`, the Kd was > 4 mM (inactive).
In the case of `OCc1ccc(N2CCOCC2)nc1`, the Kd was > 4 mM (inactive).
In the case of `CN1CCN(c2ncnc3nc[nH]c23)CC1`, the Kd was > 4 mM (inactive).
For `O=C(O)C1CC(=O)N(Cc2ccc(F)cc2)C1` (configuration not stated), the Kd was > 4 mM (inactive).
With `Cn1nnc2cc(C(=O)NC3CCCCC3)ccc21` the Kd was > 4 mM (inactive).
`NC(N)=NCCCCN=C(N)N` was tested, and the Kd was > 4 mM (inactive).
`CCOC(=O)Cc1nc2ccccc2[nH]1` was tested, and the Kd was > 4 mM (inactive).
For `O=C(Nc1cccnc1)Nc1ccc2c(c1)OCO2`, the Kd was > 4 mM (inactive).
In the case of `CN1CCC(NC(=O)c2cccnc2)CC1`, the Kd was > 4 mM (inactive).
`COc1c2ccoc2c(OC)c2oc(=O)ccc12` was tested, and the Kd was > 4 mM (inactive).
With `CC1(C)Cc2nc(N3CCOCC3)c(C#N)cc2CO1` the Kd was > 4 mM (inactive).
`O=C(Nc1ccccc1)Nc1ccccc1` was tested, and the Kd was > 4 mM (inactive).
`O=C1CSC(=Nc2cccc(C(F)(F)F)c2)N1` was tested, and the Kd was > 4 mM (inactive).
`NC(=O)c1cccc(Cl)n1` was tested, and the Kd was > 4 mM (inactive).
`CNS(=O)(=O)c1ccc2[nH]c(=O)[nH]c2c1` was tested, and the Kd was > 4 mM (inactive).
`O=C(Nc1nc2ccccc2s1)c1ccc(=O)[nH]n1` was tested, and the Kd was > 4 mM (inactive).
In the case of `Cc1sc2nc(SC3CCOC3=O)[nH]c(=O)c2c1C` (configuration not stated), the Kd was > 4 mM (inactive).
For `COC1(C)CCC2OC2(C)CCC2C1CC2(C)C` (configuration not stated), the Kd was > 4 mM (inactive).
In the case of `COC(=O)c1c(C)cc(OC(=O)c2c(C)cc(O)c(C=O)c2O)c(C)c1O`, the Kd was > 4 mM (inactive).
In the case of `Nc1cccc(S(=O)(=O)N2CCCCC2)c1`, the Kd was > 4 mM (inactive).
In the case of `Cn1c(=O)n(CC(=O)Nc2cccnc2)c2ccccc21`, the Kd was > 4 mM (inactive).
In the case of `CC(=O)n1nc(-c2cccnc2)nc1N`, the Kd was > 4 mM (inactive).
With `O=c1c[n+]([O-])c2ccccc2n1OCc1ccccc1` the Kd was > 4 mM (inactive).
For `CC(=O)N(c1ccccc1)C1C=CS(=O)(=O)C1` (configuration not stated), the Kd was > 4 mM (inactive).
In the case of `CC[C@@]1(O)C[C@H](O[C@H]2C[C@H](N(C)C)[C@H](O)[C@H](C)O2)c2c(cc3c(c2O)C(=O)c2c(O)cccc2C3=O)[C@H]1C(=O)OC`, the Kd was > 4 mM (inactive).
For `N#Cc1c(N)c(C(=O)c2ccccc2)n2c1CCC2`, the Kd was > 4 mM (inactive).
`CN(c1ccc(C(=O)N2CCCCC2)cc1)S(C)(=O)=O` was tested, and the Kd was > 4 mM (inactive).
In the case of `NC(=O)c1cc(Cl)c(C(N)=O)cc1Cl`, the Kd was > 4 mM (inactive).
With `S=C(NC1=NCCS1)Nc1ccccc1` the Kd was > 4 mM (inactive).
`O=C(O)c1ccc(Oc2ccccc2)nc1` was tested, and the Kd was > 4 mM (inactive).
For `O=C(O)c1ccc2c(c1)CCO2`, the Kd was > 4 mM (inactive).
`N#Cc1cnn(-c2ccc(Cl)cc2)c1N` was tested, and the Kd was > 4 mM (inactive).
With `COc1cc(OC)c2c(OC)c(-c3ccc4c(c3)OCO4)c(=O)oc2c1` the Kd was > 4 mM (inactive).
`O=C1c2ccccc2C(=O)N1Cc1ccco1` was tested, and the Kd was > 4 mM (inactive).
With `Cc1n[nH]c(=S)n(/N=C/c2ccccc2)c1=O` the Kd was > 4 mM (inactive).
In the case of `C[C@@H]1CC[C@]2(C(=O)O)CC[C@]3(C)C(=CCC4[C@@]5(C)CC[C@H](O)C(C)(C)C5CC[C@]43C)C2[C@H]1C` (some centres not stated), the Kd was > 4 mM (inactive).
For `COc1cccc(-c2cc(=O)c3cc(OC)ccc3o2)c1`, the Kd was > 4 mM (inactive).
`O=C(c1cc2ccccc2o1)N1CCCCCC1` was tested, and the Kd was > 4 mM (inactive).
In the case of `OCC1CCCC1O` (configuration not stated), the Kd was > 4 mM (inactive).
`CNC(=O)c1cc2cccc(OC)c2oc1=O` was tested, and the Kd was > 4 mM (inactive).
With `COC1C=CC23c4cc5c(cc4CN(CC2O)[C@@H]3C1)OCO5` (some centres not stated) the Kd was > 4 mM (inactive).
For `Cc1n[nH]c(=O)c2ncn(C)c12`, the Kd was > 4 mM (inactive).
`COCCn1cnc2cc(C)c(C)cc21` was tested, and the Kd was > 4 mM (inactive).
For `CN(Cc1nc2ccccc2n1C)C(=O)c1cccs1`, the Kd was > 4 mM (inactive).
For `COc1ccc(NC(=O)CCCC(=O)O)c(OC)c1`, the Kd was > 4 mM (inactive).
In the case of `CC1CN(Cc2ccccn2)CCC1=O` (configuration not stated), the Kd was > 4 mM (inactive).
With `Clc1ccc(-c2noc(CN3CCCC3)n2)cc1` the Kd was > 4 mM (inactive).
In the case of `Cn1nnc2cc(C(=O)Nc3cccnc3)ccc21`, the Kd was > 4 mM (inactive).
`CC(=O)O[C@@H]1CC2C(C)(C)C=CC(=O)[C@]2(C)C2CC[C@@]3(C)[C@H](c4ccoc4)OC(=O)C4OC43[C@@]21C` (some centres not stated) was tested, and the Kd was > 4 mM (inactive).
`O=C(O)c1ccc2c(c1)OCCCO2` was tested, and the Kd was > 4 mM (inactive).
For `Cc1noc(C)c1C(=O)NCc1cccs1`, the Kd was > 4 mM (inactive).
For `Cc1nc(-c2ccccc2)sc1C(N)=O`, the Kd was > 4 mM (inactive).
In the case of `CCCc1nc2ccccc2c2nc(N)nn12`, the Kd was > 4 mM (inactive).
In the case of `C(=N\c1ncn[nH]1)/c1cccs1`, the Kd was > 4 mM (inactive).
For `NCc1ccccc1N1CCOCC1`, the Kd was > 4 mM (inactive).
With `CNC(=O)c1cccc(NC(=S)NC)c1` the Kd was > 4 mM (inactive).
For `O=C1OCCC1Sc1nc2ccccc2c(=O)[nH]1` (configuration not stated), the Kd was > 4 mM (inactive).
`NC(=O)c1cc2c(n(-c3ccccc3)c1=O)CCCC2=O` was tested, and the Kd was > 4 mM (inactive).
For `Cc1ccc(C(=O)N2CCC(C(=O)O)CC2)cc1`, the Kd was > 4 mM (inactive).
`OCC1Cc2ccccc2N1` (configuration not stated) was tested, and the Kd was > 4 mM (inactive).
In the case of `O=c1nc(NCc2ccco2)sc2ncccc12`, the Kd was > 4 mM (inactive).
`CNC(=O)c1c(O)c2ccccc2[nH]c1=O` was tested, and the Kd was > 4 mM (inactive).
In the case of `CN(C)c1n[nH]c(=O)[nH]c1=O`, the Kd was > 4 mM (inactive).
For `CC(=O)c1ccc(NS(=O)(=O)c2cccc(C)c2)cc1`, the Kd was > 4 mM (inactive).
`C=C1C2CC[C@@]3(C)[C@H](c4ccoc4)OC(=O)C[C@]13O[C@H]1C[C@H](OC(C)=O)C(C)(C)[C@H](CC(=O)OC)[C@@]21C` was tested, and the Kd was > 4 mM (inactive).
For `NS(=O)(=O)c1ccc2c(c1)OCCO2`, the Kd was > 4 mM (inactive).
`C=C[C@@](C)(O)CCC1C(=C)C[C@H](OC(C)=O)C2C(C)(C)CCCC12C` (some centres not stated) was tested, and the Kd was > 4 mM (inactive).
In the case of `COC(=O)c1ccc2ncccc2c1`, the Kd was > 4 mM (inactive).
In the case of `O=C1CCC([N+](=O)[O-])C(c2ccccc2F)N1` (configuration not stated), the Kd was > 4 mM (inactive).
`O=C(NCCO)c1cc2ccccc2c(=O)s1` was tested, and the Kd was > 4 mM (inactive).
In the case of `CN1CCN(C(=O)c2ccccc2C(=O)O)CC1`, the Kd was > 4 mM (inactive).
In the case of `OCC(O)Cc1ccc2c(c1)OCO2` (configuration not stated), the Kd was > 4 mM (inactive).
For `O=C1CCC(C(=O)NCc2ccc(Cl)cc2)N1` (configuration not stated), the Kd was > 4 mM (inactive).
With `COc1c(-c2ccccc2)oc2c(OC)cccc2c1=O` the Kd was > 4 mM (inactive).
In the case of `O=c1[nH]c2sc3c(c2c2nncn12)CCCC3`, the Kd was > 4 mM (inactive).
For `CC1(C)C(=O)C=C[C@@]2(C)C1=C(O)C(=O)[C@]1(C)C2CC[C@@]2(C)[C@H](c3ccoc3)C[C@H]3O[C@]321` (some centres not stated), the Kd was > 4 mM (inactive).
For `O=C(Nc1ccc(N2CCCC2=O)cc1)c1cccc(F)c1`, the Kd was > 4 mM (inactive).
`CS(=O)(=O)NN=C1CCCCC1` was tested, and the Kd was > 4 mM (inactive).
For `O=C(Nc1nnc(-c2cccnc2)o1)c1ccccc1F`, the Kd was > 4 mM (inactive).
For `O=C(O)C1CSC(c2cc3ccccc3nc2Cl)N1` (configuration not stated), the Kd was > 4 mM (inactive).
For `c1ccc(Cn2cccc2)nc1`, the Kd was > 4 mM (inactive).
`Cn1c(=O)n(C)c2cc(C(N)=O)ccc21` was tested, and the Kd was > 4 mM (inactive).
In the case of `c1ccc2c(c1)CN1CCCC1=N2`, the Kd was > 4 mM (inactive).
For `CC(C)CCCC1(C)C=Cc2c(O)c3c(c(CCC(C)C)c2O1)OC12C(CC4CC1C(C)(C)OC2(CCC(C)C(=O)O)C4O)C3=O` (configuration not stated), the Kd was > 4 mM (inactive).
With `CC[C@H]1CN2CCc3cc(OC)c(OC)cc3C2C[C@@H]1CC1NCCc2cc(OC)c(OC)cc21` (some centres not stated) the Kd was > 4 mM (inactive).
With `O=C1CSC(=O)N1CNc1ccccc1` the Kd was > 4 mM (inactive).
With `Nc1ncnc2nc[nH]c12` the Kd was > 4 mM (inactive).
With `CCC(=O)NC(=S)Nc1ccc(O)cc1` the Kd was > 4 mM (inactive).
For `Cc1ccc(-n2ncc(C#N)c2/N=C/N(C)C)cc1`, the Kd was > 4 mM (inactive).
With `NC(=O)CSc1ccc(-c2ccco2)nn1` the Kd was > 4 mM (inactive).
In the case of `O=C(Nc1cccnc1)c1ccc(Br)s1`, the Kd was > 4 mM (inactive).
